Article PMC2809098, “HH Domain of Alzheimer’s Disease Aβ Provides Structural Basis for Neuronal Binding in PC12 and Mouse Cortical/Hippocampal Neurons” (PLoS ONE, 2010)
No end group written: not given here.

Experiments:
immobilized Aβ40 fibrils = biological target: T1, immobilized Aβ40 fibrils (Homo sapiens, UniProt P05067); test: Surface plasmon resonance binding to immobilized Aβ40 fibrils; conditions: read-out: ka
T1 construct: made in house; host or cells: chemical solid-phase peptide synthesis (CEM Liberty synthesizer)
T1 sequence (P05067 672-711): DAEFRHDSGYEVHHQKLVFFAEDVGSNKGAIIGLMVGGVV
Description: Surface Plasmon Resonance (SPR) analyses were performed at 25 °C using Biacore 3000 optical biosensors with research grade CM5 chips (Biacore, Uppsala, Sweden). […] The binding sensograms were recorded following the injection of freshly prepared peptides over the immobilized surface for 5 min at a flow rate of 30 µl/min. The dissociation profile was monitored for about 15 min, and then the surface was regenerated with two short 8 sec injections of 50 mM NaOH. Extensive validation studies were performed to ensure that Aβ fibrils immobilized on the chip retained their binding characteristics even after the regeneration procedure. Kinetic data analysis was performed using Biaevaluation software (Version 3.2) provided by Biacore Inc., Uppsala, Sweden.

[1] = system: amyloid plaques in APP, PS1 mouse brain sections; test: Labeling of amyloid plaques in brain sections with radioiodinated peptides, emulsion autoradiography; type: binding; conditions: 100 pM radioiodinated peptide, 3 hrs, unfixed 15 µm cryosections, 20-month old APP, one day of exposure
Description: HPLC-purified ^125I-Aβ40, ^125I-Aβ40 H13G, ^125I-Aβ40 H13R, ^125I-Aβ40 H13,14G or buffer was incubated in vitro with unfixed cryosections (15 µm) of brain from a 20-month old APP, PS1 AD transgenic mouse using the same procedure used previously. The rodent Aβ was not evaluated because the peptide lacks a tyrosine amino acid for radioiodination. Briefly, the sections were incubated for 3 hrs with 100 pM radioiodinated peptide or alone in 250 µl of TBS (50 mM Tris HCl, 138 mM sodium chloride, pH 7.0) containing 0.1% BSA, 0.6 mg/ml magnesium chloride, 0.04 mg/ml bacitracin, 0.002 mg/ml chymostatin, and 0.004 mg/ml leupeptin. After rinsing and air drying overnight at 4°C., the sections were fixed in formalin for 5 min and then underwent immunoperoxidase histochemistry (IH) for amyloid using an anti-Aβ monoclonal mouse antibody (4G8, 1∶1000, Signet Laboratories, Dedham, MA). Next, the sections were dipped in an autoradiographic emulsion (Type NTB-3, Kodak, Rochester, NY) for direct comparison of ^125I-peptide labeling to anti-Aβ IH. The slides were dipped in emulsion, exposed for various durations, and developed according to the instructions. The sections were dehydrated with successive changes of ethanol and xylene and then coverslipped.

| Substance | kon at 75 µM (immobilized Aβ40 fibrils) [M⁻¹ s⁻¹] | labeling of amyloid plaques [1] |
| --- | --- | --- |
| DAEFGHDSGFEVRHQKLVFFAEDVGSNKGAIIGLMVGGVV [Aβ40 R5G, Y10F, H13R, Aβ1-40 R5G, Y10F, H13R] | 31 |  |
| ^125I-Aβ40 H13,14G: radioiodinated Aβ40 H13,14G |  | labeled amyloid plaques equally well |
| ^125I-Aβ40 H13G |  | labeled amyloid plaques equally well |
| ^125I-Aβ40 H13R |  | labeled amyloid plaques equally well |
| ^125I-Aβ40: radioiodinated Aβ40 [reference compound] |  | labeled amyloid plaques equally well |
